# From patent US9611267B2, “Substituted tricyclic compounds as FGFR inhibitors” (Incyte Corporation, priority 2012, dated 2017)
# What was measured:
# Format in all cases: biochemical
# FGFR2 = FGFR2 (Homo sapiens (Human), UniProt P21802); test: FGFR enzymatic assay (FRET peptide phosphorylation), FGFR2; details: FGFR2 enzyme 0.01 nM, ATP 100 μM
# Procedure: (§1) The inhibitor potency of the exemplified compounds was measured in an enzyme assay that measures peptide phosphorylation using FRET measurements to detect product formation. Inhibitors were serially diluted in DMSO and a volume of 0.5 μL was transferred to the wells of a 384-well plate. For FGFR3, a 10 μL volume of FGFR3 enzyme (Millipore) diluted in assay buffer (50 mM HEPES, 10 mM MgCl2, 1 mM EGTA, 0.01% Tween-20, 5 mM DTT, pH 7.5) was added to the plate and pre-incubated for 5-10 minutes. Appropriate controls (enzyme blank and enzyme with no inhibitor) were included on the plate. […] The plate was incubated at 25° C. for 1 hr. […] The plate was allowed to equilibrate for ˜1 hr before scanning the wells on a PheraStar plate reader (BMG Labtech).
# (§2) The enzymes were purchased from Millipore or Invitrogen.
# (§3) GraphPad prism3 was used to analyze the data. The IC50 values were derived by fitting the data to the equation for a sigmoidal dose-response with a variable slope. Y=Bottom+(Top−Bottom)/(1+10^((LogIC50−X)*HillSlope)) where X is the logarithm of concentration and Y is the response.
# FGFR1 = FGFR1 (Homo sapiens (Human), UniProt P11362); test: FGFR enzymatic assay (FRET peptide phosphorylation), FGFR1; details: FGFR1 enzyme 0.02 nM, ATP 210 μM
# Chain of FGFR1 (P11362 22-822): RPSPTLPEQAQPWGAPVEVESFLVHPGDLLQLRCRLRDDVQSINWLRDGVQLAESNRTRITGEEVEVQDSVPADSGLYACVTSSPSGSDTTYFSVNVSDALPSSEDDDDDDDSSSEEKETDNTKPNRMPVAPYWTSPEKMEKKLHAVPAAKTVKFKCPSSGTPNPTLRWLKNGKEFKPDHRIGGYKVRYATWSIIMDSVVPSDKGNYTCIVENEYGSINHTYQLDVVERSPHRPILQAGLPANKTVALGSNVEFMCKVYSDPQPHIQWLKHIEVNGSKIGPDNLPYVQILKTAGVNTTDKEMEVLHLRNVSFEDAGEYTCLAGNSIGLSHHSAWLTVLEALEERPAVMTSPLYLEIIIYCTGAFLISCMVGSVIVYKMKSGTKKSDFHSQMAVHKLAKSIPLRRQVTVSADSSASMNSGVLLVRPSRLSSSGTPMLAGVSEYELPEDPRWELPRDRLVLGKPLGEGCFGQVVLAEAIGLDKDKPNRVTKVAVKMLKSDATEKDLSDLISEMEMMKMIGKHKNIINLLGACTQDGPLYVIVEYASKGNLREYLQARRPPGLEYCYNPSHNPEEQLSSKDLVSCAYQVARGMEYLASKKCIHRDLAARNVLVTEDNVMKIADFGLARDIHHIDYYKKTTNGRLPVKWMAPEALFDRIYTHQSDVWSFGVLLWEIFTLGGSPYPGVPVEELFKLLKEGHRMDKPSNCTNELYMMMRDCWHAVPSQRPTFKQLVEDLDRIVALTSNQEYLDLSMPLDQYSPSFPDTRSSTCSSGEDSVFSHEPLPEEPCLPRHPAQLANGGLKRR
# Procedure: as §1, §2, §3
# FGFR3 = FGFR3 (Homo sapiens (Human), UniProt P22607); test: FGFR enzymatic assay (FRET peptide phosphorylation), FGFR3; details: FGFR3 enzyme (Millipore), ATP 140 μM
# Chain of FGFR3 (P22607 23-806): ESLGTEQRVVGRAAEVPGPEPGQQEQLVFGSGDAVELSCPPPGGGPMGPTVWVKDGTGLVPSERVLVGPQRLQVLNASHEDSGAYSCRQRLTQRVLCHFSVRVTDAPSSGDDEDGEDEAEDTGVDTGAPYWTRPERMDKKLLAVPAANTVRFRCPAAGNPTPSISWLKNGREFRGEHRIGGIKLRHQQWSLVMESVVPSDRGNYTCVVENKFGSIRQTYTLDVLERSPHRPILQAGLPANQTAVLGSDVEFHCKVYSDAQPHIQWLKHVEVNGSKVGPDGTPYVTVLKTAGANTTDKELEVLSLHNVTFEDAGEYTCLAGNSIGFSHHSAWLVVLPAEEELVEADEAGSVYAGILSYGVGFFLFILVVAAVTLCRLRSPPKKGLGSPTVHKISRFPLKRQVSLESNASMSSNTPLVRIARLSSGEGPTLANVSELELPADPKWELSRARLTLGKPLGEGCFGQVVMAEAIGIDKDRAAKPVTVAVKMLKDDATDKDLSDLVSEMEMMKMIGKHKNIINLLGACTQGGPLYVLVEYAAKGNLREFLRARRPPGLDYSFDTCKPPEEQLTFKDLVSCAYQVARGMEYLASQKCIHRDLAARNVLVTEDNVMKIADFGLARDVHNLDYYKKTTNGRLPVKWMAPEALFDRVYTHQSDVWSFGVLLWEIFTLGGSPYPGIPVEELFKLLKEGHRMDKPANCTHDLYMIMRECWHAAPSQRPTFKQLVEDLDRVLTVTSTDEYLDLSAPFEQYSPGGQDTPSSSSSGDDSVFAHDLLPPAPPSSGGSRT
# Procedure: as §1, §3
# Chain of FGFR2 (P21802 22-821): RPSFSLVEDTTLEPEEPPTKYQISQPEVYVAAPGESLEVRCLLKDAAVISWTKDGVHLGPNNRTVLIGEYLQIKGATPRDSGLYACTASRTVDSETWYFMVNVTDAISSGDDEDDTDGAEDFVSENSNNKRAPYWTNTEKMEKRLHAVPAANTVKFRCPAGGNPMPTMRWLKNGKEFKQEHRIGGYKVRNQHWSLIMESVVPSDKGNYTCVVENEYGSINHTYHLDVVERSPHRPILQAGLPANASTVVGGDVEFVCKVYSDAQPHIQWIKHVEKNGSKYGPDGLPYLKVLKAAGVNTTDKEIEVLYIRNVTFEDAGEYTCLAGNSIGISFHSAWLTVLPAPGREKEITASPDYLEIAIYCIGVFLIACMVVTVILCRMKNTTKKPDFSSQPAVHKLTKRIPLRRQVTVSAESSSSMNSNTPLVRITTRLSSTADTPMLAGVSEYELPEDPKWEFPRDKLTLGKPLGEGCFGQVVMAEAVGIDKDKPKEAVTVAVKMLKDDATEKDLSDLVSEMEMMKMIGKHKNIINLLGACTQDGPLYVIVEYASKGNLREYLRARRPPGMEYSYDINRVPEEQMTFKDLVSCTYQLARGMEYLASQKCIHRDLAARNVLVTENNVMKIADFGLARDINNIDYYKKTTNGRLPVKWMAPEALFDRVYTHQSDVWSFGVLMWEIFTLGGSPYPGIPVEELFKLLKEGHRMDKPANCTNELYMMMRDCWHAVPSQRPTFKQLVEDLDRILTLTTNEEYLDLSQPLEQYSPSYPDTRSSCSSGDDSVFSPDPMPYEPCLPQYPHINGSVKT
SMILES,IC50 (FGFR2) [nM],IC50 (FGFR1) [nM],IC50 (FGFR3) [nM]
"COc1cc(OC)cc(N2Cc3cnc4[nH]c(-c5ccc(N6CCN(C)CC6)cc5)cc4c3N(C)C2=O)c1 [Example 10, 3-(3,5-Dimethoxyphenyl)-1-methyl-8-[4-(4-methylpiperazin-1-yl)phenyl]-1,3,4,7-tetrahydro-2H-pyrrolo[3′,2′:5,6]pyrido[4,3-d]pyrimidin-2-one]",< 100,< 100,< 100
"COc1cc(OC)c(F)c(N2Cc3cnc4[nH]ncc4c3N(c3cccc(C(=O)NC4CC4)c3F)C2=O)c1F [Example 200, N-cyclopropyl-3-[3-(2,6-difluoro-3,5-dimethoxyphenyl)-2-oxo-2,3,4,7-tetrahydro-1H-pyrazolo[4′,3′:5,6]pyrido[4,3-d]pyrimidin-1-yl]-2-fluorobenzamide]",< 100,< 100,< 100
"COc1cc(OC)c(F)c(N2Cc3cnc4[nH]c(Cn5cccn5)cc4c3N(C)C2=O)c1F [Example 138, 3-(2,6-difluoro-3,5-dimethoxyphenyl)-1-methyl-8-(1H-pyrazol-1-ylmethyl)-1,3,4,7-tetrahydro-2H-pyrrolo[3′,2′:5,6]pyrido[4,3-d]pyrimidin-2-one]",< 100,< 100,< 100
"COc1cc(OC)c(F)c(N2Cc3cnc4[nH]ncc4c3N(CCc3ccncc3)C2=O)c1F [Example 171, 3-(2,6-Difluoro-3,5-dimethoxyphenyl)-1-(2-pyridin-4-ylethyl)-1,3,4,7-tetrahydro-2H-pyrazolo[4′,3′:5,6]pyrido[4,3-d]pyrimidin-2-one]",< 100,< 100,< 100
"COc1cc(OC)c(F)c(N2Cc3cnc4[nH]c(CN5CCOCC5)cc4c3N(CCF)C2=O)c1F [Example 232, 3-(2,6-difluoro-3,5-dimethoxyphenyl)-1-(2-fluoroethyl)-8-(morpholin-4-ylmethyl)-1,3,4,7-tetrahydro-2H-pyrrolo[3′,2′:5,6]pyrido[4,3-d]pyrimidin-2-one]",< 100,< 100,< 100
"COc1cc(OC)c(Cl)c(N2Cc3cnc4[nH]c(C(=O)N5CC(O)C5)cc4c3N(C)C2=O)c1 [Example 25, 3-(2-Chloro-3,5-dimethoxyphenyl)-8-[(3-hydroxyazetidin-1-yl)carbonyl]-1-methyl-1,3,4,7-tetrahydro-2H-pyrrolo[3′,2′:5,6]pyrido[4,3-d]pyrimidin-2-one]",< 100,< 100,< 100
"CCN1CCN(Cc2cc3c4c(cnc3[nH]2)CN(c2c(F)c(OC)cc(OC)c2F)C(=O)N4c2ccccc2F)CC1 [Example 181, 3-(2,6-difluoro-3,5-dimethoxyphenyl)-8-[(4-ethylpiperazin-1-yl)methyl]-1-(2-fluorophenyl)-1,3,4,7-tetrahydro-2H-pyrrolo[3′,2′:5,6]pyrido[4,3-d]pyrimidin-2-one]",< 100,< 100,< 100
"COc1cc(OC)c(F)c(N2Cc3cnc4[nH]c(CN5CCOCC5)cc4c3N(c3cccc(F)c3)C2=O)c1F [Example 212, 3-(2,6-difluoro-3,5-dimethoxyphenyl)-1-(3-fluorophenyl)-8-(morpholin-4-ylmethyl)-1,3,4,7-tetrahydro-2H-pyrrolo[3′,2′:5,6]pyrido[4,3-d]pyrimidin-2-one]",< 100,< 100,< 100
"COc1cc(OC)c(Cl)c(N2Cc3cnc4[nH]c(C#N)cc4c3N(C)C2=O)c1 [Example 16, 3-(2-Chloro-3,5-dimethoxyphenyl)-1-methyl-2-oxo-2,3,4,7-tetrahydro-1H-pyrrolo[3′,2′:5,6]pyrido[4,3-d]pyrimidine-8-carbonitrile]",< 100,< 100,< 100
"COc1cc(OC)c(F)c(N2Cc3cnc4[nH]c(CN5CCC(O)CC5)cc4c3N(C)C2=O)c1F [Example 111, 3-(2,6-difluoro-3,5-dimethoxyphenyl)-8-[(4-hydroxypiperidin-1-yl)methyl]-1-methyl-1,3,4,7-tetrahydro-2H-pyrrolo[3′,2′:5,6]pyrido[4,3-d]pyrimidin-2-one]",< 100,< 100,< 100
"COc1cc(OC)c(Cl)c(N2Cc3cnc4[nH]ccc4c3N(c3cnn(C)c3)C2=O)c1F [Example 107, 3-(2-chloro-6-fluoro-3,5-dimethoxyphenyl)-1-(1-methyl-1H-pyrazol-4-yl)-1,3,4,7-tetrahydro-2H-pyrrolo[3′,2′:5,6]pyrido[4,3-d]pyrimidin-2-one]",< 100,< 100,< 100
"COc1cc(OC)c(F)c(N2Cc3cnc4[nH]ncc4c3N(c3ccccc3OC(F)F)C2=O)c1F [Example 164, 3-(2,6-Difluoro-3,5-dimethoxyphenyl)-1-[2-(difluoromethoxy)phenyl]-1,3,4,7-tetrahydro-2H-pyrazolo[4′,3′:5,6]pyrido[4,3-d]pyrimidin-2-one]",< 100,< 100,< 100
"COc1cc(OC)c(F)c(N2Cc3cnc4[nH]ncc4c3N(Cc3cccc(F)n3)C2=O)c1F [Example 216, 3-(2,6-difluoro-3,5-dimethoxyphenyl)-1-[(6-fluoropyridin-2-yl)methyl]-1,3,4,7-tetrahydro-2H-pyrazolo[4′,3′:5,6]pyrido[4,3-d]pyrimidin-2-one]",< 100,< 100,< 100
"COc1cc(OC)c(F)c(N2Cc3cnc4c(c3N(c3cccc(F)c3F)C2=O)CC(=O)N4)c1F [Example 77, 3-(2,6-difluoro-3,5-dimethoxyphenyl)-1-(2,3-difluorophenyl)-3,4,7,9-tetrahydro-1H-pyrrolo[3′,2′:5,6]pyrido[4,3-d]pyrimidine-2,8-dione]",< 100,–,< 100
"COc1cc(OC)c(F)c(N2Cc3cnc4c(c3N(c3ccc(C#N)cc3)C2=O)CC(=O)N4)c1F [Example 122, 4-[3-(2,6-difluoro-3,5-dimethoxyphenyl)-2,8-dioxo-2,3,4,7,8,9-hexahydro-1H-pyrrolo[3′,2′:5,6]pyrido[4,3-d]pyrimidin-1-yl]benzonitrile]",< 100,–,< 100
"COc1cc(OC)c(F)c(N2Cc3cnc4c(c3N(C)C2=O)C2(CC2)C(=O)N4)c1F [Example 59, 3′-(2,6-Difluoro-3,5-dimethoxyphenyl)-1′-methyl-4′,7′-dihydrospiro[cyclopropane-1,9′-pyrrolo[3′,2′:5,6]pyrido[4,3-d]pyrimidine]-2′,8′(1′H,3′H)-dione]",< 100,–,< 100

# Further lines, results first:
IC50 (FGFR2) [nM],IC50 (FGFR1) [nM],IC50 (FGFR3) [nM],SMILES
< 100,< 100,< 100,"COc1cc(OC)c(F)c(N2Cc3cnc4[nH]c(CCN5CCOCC5)cc4c3N(c3ccc(F)cc3)C2=O)c1F [Example 225, 3-(2,6-difluoro-3,5-dimethoxyphenyl)-1-(4-fluorophenyl)-8-(2-morpholin-4-ylethyl)-1,3,4,7-tetrahydro-2H-pyrrolo[3′,2′:5,6]pyrido[4,3-d]pyrimidin-2-one]"
< 100,< 100,< 100,"COc1cc(OC)c(F)c(N2Cc3cnc4[nH]ncc4c3N(c3cnn(CC(F)F)c3)C2=O)c1F [Example 175, 3-(2,6-difluoro-3,5-dimethoxyphenyl)-1-[1-(2,2-difluoroethyl)-1H-pyrazol-4-yl]-1,3,4,7-tetrahydro-2H-pyrazolo[4′,3′:5,6]pyrido[4,3-d]pyrimidin-2-one]"
< 100,< 100,< 100,"CCn1cc(N2C(=O)N(c3c(F)c(OC)cc(OC)c3F)Cc3cnc4[nH]ncc4c32)cn1 [Example 172, 3-(2,6-difluoro-3,5-dimethoxyphenyl)-1-(1-ethyl-1H-pyrazol-4-yl)-1,3,4,7-tetrahydro-2H-pyrazolo[4′,3′:5,6]pyrido[4,3-d]pyrimidin-2-one]"
< 100,< 100,< 100,"COc1cc(OC)c(F)c(N2Cc3cnc4[nH]ncc4c3N(Cc3ccccn3)C2=O)c1F [Example 86, 3-(2,6-difluoro-3,5-dimethoxyphenyl)-1-(pyridin-2-ylmethyl)-1,3,4,7-tetrahydro-2H-pyrazolo[4′,3′:5,6]pyrido[4,3-d]pyrimidin-2-one]"
< 100,< 100,< 100,"CCN1C(=O)N(c2c(F)c(OC)cc(OC)c2F)Cc2cnc3[nH]c(CCN4CC(C#N)C4)cc3c21 [Example 230, 1-{2-[3-(2,6-difluoro-3,5-dimethoxyphenyl)-1-ethyl-2-oxo-2,3,4,7-tetrahydro-1H-pyrrolo[3′,2′:5,6]pyrido[4,3-d]pyrimidin-8-yl]ethyl}azetidine-3-carbonitrile]"
< 100,< 100,< 100,"COc1cc(OC)c(F)c(N2Cc3cnc4[nH]ncc4c3N([C@H]3CCOC3)C2=O)c1F [Example 89, 3-(2,6-difluoro-3,5-dimethoxyphenyl)-1-[(3S)-tetrahydrofuran-3-yl]-1,3,4,7-tetrahydro-2H-pyrazolo[4′,3′:5,6]pyrido[4,3-d]pyrimidin-2-one]"
< 100,< 100,< 100,"COc1cc(OC)c(F)c(N2Cc3cnc4[nH]c(CN5CC(O)C5)cc4c3C(C)(C)C2=O)c1F [Example 206, 7-(2,6-difluoro-3,5-dimethoxyphenyl)-2-[(3-hydroxyazetidin-1-yl)methyl]-9,9-dimethyl-3,6,7,9-tetrahydro-8H-pyrrolo[2,3-c]-2,7-naphthyridin-8-one]"
